Earlier results on one compound are cited in patent publication US20050042301A1, “Method of use of Xenon-133 for the treatment of AIDS, other viral and non-viral infections” (priority 2003, published 2005).

The conditions of this data set: stable xenon; b17 says distributed in the body, b20 says formed in vitro.

On to `[131Xe]` [Xe-131, Xenon-131], for which the “size range of gas microbubbles (diameter)” value is recorded as 5-10 microns.
